The assay has as its system K562 cells. As to the kind of experiment: MTS cell viability assay (K562 cell line). Format: cell-based. The note with it: Homo sapiens, 48 hr. The procedure: K562 cells were the first human immortalised myelogenous leukemia line to be established. K562 cells are of the erythroleukemia type, and the line is derived from a CML patient. The cells are non-adherent and rounded, are positive for the bcr:abl fusion gene.
K562 cell line is maintained in RPMI1640 with 10% fetal Bovine Serum. 2500 cells/well of K562 cells were plated in 96 well tissue culture plate. Cells were incubated for 48 hours with serially diluted compound (final concentration from 20 μM-0.002 μM) for 48 hr. MTS (3-(4,5-dimethylthiazol-2-yl)-5-(3-carboxymethoxyphenyl)-2-(4-sulfophenyl)-2H-tetrazolium), obtained from Promega was added to the wells and plates were incubated at […] in 5% CO2 for 4 hrs. The MTS compound is bio-reduced by cells into a colored formazan product that is soluble in tissue culture medium. The quantity of formazan product as measured by the amount of 490 nm absorbance is directly proportional to the number of living cells in culture. The absorbance was read at 490 nm (Spectramax microplate reader). The Percentage inhibition was calculated and plotted against the concentration of inhibitor and data was fit to Non Linear Regression curve fit (sigmoidal dose response curve with variable slope-four parameters) using Graph pad prism 5.

In general, inhibition refers to the percentage by which the read-out fell short of the control. Read a high inhibition as a strong effect.

In turn, `Cc1ccc(NC(=O)c2ccc(CN3CCN(C)CC3)cc2)cc1Nc1nccc(-c2cccnc2)n1` [imatinib, 4-[(4-methylpiperazin-1-yl)methyl]-N-(4-methyl-3-{[4-(pyridin-3-yl)pyrimidin-2-yl]amino}phenyl)benzamide, reference compound] came in with an inhibition at 0.2 µM of 48%, an inhibition at 2 µM of 64% and an inhibition at 20 µM of 67%.

`Cc1ccc(NC(=O)c2ccc(CN3CC[N+](C)(COC(=O)N[C@H](C)c4ccccc4)CC3)cc2)cc1Nc1nccc(-c2cccnc2)n1` [Compound 1011, (R)-1-methyl-4-(4-((4-methyl-3-((4-(pyridin-3-yl)pyrimidin-2-yl)amino)phenyl)carbamoyl)benzyl)-1-((((1-phenylethyl)carbamoyl)oxy)methyl)piperazin-1-ium iodide] registered an inhibition at 0.2 µM of 45%, an inhibition at 2 µM of 63% and an inhibition at 20 µM of 70%.

In turn, `CCC(C)(C)OC(=O)OC[N+]1(C)CCN(Cc2ccc(C(=O)Nc3ccc(C)c(Nc4nccc(-c5cccnc5)n4)c3)cc2)CC1` [Compound 1028, 1-methyl-4-(4-(4-methyl-3-(4-(pyridin-3-yl)pyrimidin-2-ylamino)phenylcarbamoyl)benzyl)-1-((tert-pentyloxycarbonyloxy)methyl)piperazin-1-ium iodide] came in with an inhibition at 0.2 µM of 40%, an inhibition at 2 µM of 63% and an inhibition at 20 µM of 76%.
